Laboratory results taken from patent US10100052B2, “Compounds for the treatment of hepatitis B virus infection” (Gilead Sciences, Inc., priority 2016, dated 2018).

What was measured:
[1] = Pharmacokinetic analysis following intravenous administration to rats; type: in vivo; details: male, Sprague-Dawley, rat, intravenous infusion over 30 min, 1 mg/kg; for clearance / Vd: plasma; for Vd: read-out: Vss; for half-life: terminal plasma half-life
Description: (§1) Pharmacokinetic analysis was performed on various test compounds following intravenous or oral administration to male Sprague-Dawley rats.
(§2) For pharmacokinetic analysis of intravenously administered compounds, the test compounds were formulated in 5% NMP, 30% PG, 45% PEG 300 and 20% water at 0.5 mg/mL for IV infusion. For pharmacokinetic analysis following oral administration, compounds were formulated in the same vehicle and concentration.
(§3) Each dosing group consisted of 3 male, naïve Sprague-Dawley rats. At dosing, animals weighed approximately 0.28 kg. The animals were fasted overnight prior to dose administration and up to 4 hr after dosing. For studies of intravenous administration, the test article was administered to the animals by intravenous infusion over 30 min. The rate of infusion was adjusted according to the body weight of each animal to deliver a dose of 1 mg/kg. For studies of oral administration, the test article was administered according to the body weight of each animal to deliver a dose of 5 mg/kg.
For pharmacokinetic analysis of intravenously administered compounds, serial venous blood samples (approximately 0.3 mL each) were taken from each animal at 0, 0.250, 0.483, 0.583, 0.750, 1.50, 3.00, 6.00, 8.00, 12.0, and 24.0 hours after dosing. The blood samples were collected into Vacutainer™ tubes containing EDTA-K2 as the anti-coagulant and were immediately placed on wet ice pending centrifugation for plasma. An LC/MS/MS method was used to measure the concentration of the test compound in plasma. An aliquot of 100 μL of each plasma sample was added to a clean 96 well plate, and 400 μL of cold acetonitrile/internal standard solution (ACN)/(ISTD) was added. After protein precipitation, an aliquot of 100 μL of the supernatant was transferred to a clean 96-well plate and diluted with 175 μL of water. An aliquot of 10 μL of the above solution was injected into an ABSciex API-4000 LC/MS/MS system utilizing a HyPurity C18 HPLC column (30×2.1 mm, 3 m; Thermo-Hypersil Part #22103-032130). An Agilent 1200 series binary pump (P/N G1312A Bin Pump) was used for elution and separation, and an HTS Pal autosampler (LEAP Technologies, Carrboro, N.C.) was used for sample injection. A TSQ Quantum Ultra triple quadrupole mass spectrometer was utilized in selective reaction monitoring mode (Applied Biosystems, Foster City, Calif.). Liquid chromatography was performed using two mobile phases: mobile phase A contained 0.1% formic acid and 1% isopropanol in water; and mobile phase B contained 0.1% formic acid and 1% isopropanol in acetonitrile. Non-compartmental pharmacokinetic analysis was performed on the plasma concentration-time data.
The resulting data are shown in the first three columns of Table 4. In Table 4, CL refers to clearance, which characterizes the rate at which drug is removed from plasma. The lower the clearance of a drug is, the longer the elimination half-life is in the body. Vss refers to the steady state volume of distribution and indicates how well a drug is distributed into the tissues. The larger the Vss is, the longer the elimination half-life is in the body. T1/2 refers to the terminal plasma half-life of the compound.

[2] = In vitro metabolic stability, hepatocytes (human); type: in vitro ADME; details: human hepatocytes 1×10^6 cells/mL, 2 μM compound; read-out: Hepatocyte Stability T1/2 Human (converted)
Description: (§4) For hepatocyte stability incubations, cells were obtained from BioreclamationIVT (Baltimore, Md.), thawed according to the manufacturer's directions, and resuspended to a final concentration of 1×10^6 cells/mL in Krebs-Henseleit buffer prewarmed to 37° C. The total cell count and the proportion of viable cells were determined by Trypan Blue dye exclusion using a hemocytometer. The final concentration of test compounds and positive controls was 2 μM. Incubations were carried out in duplicate wells of a 24-well plate out with gentle shaking at 37° C. under a humid atmosphere of 95% air/5% CO2 (v/v). Aliquots (50 μL) were removed after 0, 1, 3, and 6 hours and added to 100 μL quenching solution. Samples were then processed and analyzed in a manner similar to the microsomal stability samples.
(§5) Quantification of test compounds and positive controls were performed using analyte/internal standard peak area ratios (PAR) measured on a Q-Exactive mass spectrometer (Thermo Scientific, San Jose, Calif.) coupled to an Aria Transcend LX-4 multiplex UHPLC system (Thermo Scientific, San Jose, Calif.). […] Half-lives of compounds in the incubations were calculated from extracted data using GMSU/QuickCalc (Gubbs, Inc.) and data are summarized in the following Table 3.

[3] = Pharmacokinetic analysis following oral administration to rats; type: in vivo, male Sprague-Dawley rats; details: rat, 5 mg/kg; for Cmax / AUC(0-t): male, Sprague-Dawley, plasma; for AUC(0-t): 0 to 24 hr, read-out: AUC0-24; for F: oral bioavailability
Description: as §1, §2, §3
For pharmacokinetic analysis of orally administered compounds, serial venous blood samples (approximately 0.3 mL each) were taken from each animal at time points of 0, 0.25, 0.50, 1.0, 2.0, 4.0, 6.0, 8.0, 12.0 and 24.0 hours after dosing. Blood samples were collected, prepared and analyzed in a similar way to the intravenous studies described above. Non-compartmental pharmacokinetic analysis was performed on the plasma concentration-time data. The resulting data are shown in the last three columns of Table 4. In Table 4, F (%) refers to oral bioavailability. Cmax refers to the peak plasma concentration of the compound after administration. AUC0-24 refers to area under the curve for the 0 to 24 hr plasma collection interval and is a measure of total plasma exposure of the indicated compound.

[4] = In vitro metabolic stability, hepatocytes (rat); type: in vitro ADME; details: rat hepatocytes 1×10^6 cells/mL, 2 μM compound; read-out: Hepatocyte Stability T1/2 Rat (converted)
Description: as §4, §5

**Q.** Which clearance [1] does the source give for `COCCCOc1cc2c(cc1Cl)-c1cc(=O)c(C(=O)O)cn1[C@H](C1(C)CC1)C2` [Comparative Example 1] here?
**A.** 5.67 mL/min/kg

**Q.** And the Vd [1]?
**A.** 0.57 L/kg

**Q.** And the half-life [1]?
**A.** 1.62 h

**Q.** And the half-life at 2 μM [2]?
**A.** 8.9 h

**Q.** And the Cmax [3]?
**A.** 4.03 µM

**Q.** What about the AUC(0-t) [3] of the same compound?
**A.** 22.1 µM·h

**Q.** What about the F [3] of the same compound?
**A.** 53.8%

**Q.** And the half-life at 2 μM [4]?
**A.** 7 h

**Q.** Which results are given for `COCCCOc1cc2c(cc1Cl)-c1cc(=O)c(C(=O)O)cn1N(C(C)(C)C)C2` [Example 2, 6-(tert-Butyl)-10-chloro-9-(3-methoxypropoxy)-2-oxo-6,7-dihydro-2H-pyrido[2,1-a]-phthalazine-3-carboxylic acid]?
**A.** clearance [1]: 2.97 mL/min/kg; Vd [1]: 0.623 L/kg; half-life [1]: 3.34 h; half-life at 2 μM [2]: 26.6 h; Cmax [3]: 6.76 µM; AUC(0-t) [3]: 68.6 µM·h; F [3]: 109%; half-life at 2 μM [4]: > 39.5 h

**Q.** What does the source list for `COCCCOc1cc2c(cc1Cl)-c1cc(=O)c(C(=O)O)cn1[C@H](C(C)(C)C)C2` [Comparative Example 2]?
**A.** clearance [1]: 5.05 mL/min/kg; Vd [1]: 0.661 L/kg; half-life [1]: 1.99 h; Cmax [3]: 2.43 µM; AUC(0-t) [3]: 15.2 µM·h; F [3]: 40.5%
